Results: patent publication EP0526502B1, “PHENOLIC AMINE DEPIGMENTING AND ANTIMELANOMA AGENTS” (The Governors of the University of Alberta, priority 1990, dated 1991)
Where “and” joins values, the source holds several entries; their conditions need not be identical. Equal entries are not always repeated.

Assays:
[1] = test system: B16F10 melanoma; experiment: Melanoma-colony formation in the lungs; format: in vivo, mice; settings: 900 mg/kg i.p. daily for 14 days from day five; lungs excised day 26
Description: Murine B16F10 melanoma cell line with a strong metastatic property to form tumour colonies in the lungs was obtained from Dr. Longenecker, Department of Immunology, University of Alberta. Such cell line is well recognized and readily available as reported in Miura et al, supra. The cells were grown in T-75 flasks in dulbecco's MEM available from Gipco Lab Inc., Grand Island, New York, supplemented with 10% fetal calf serum, also obtained from Gipco, penicillin (100 »/ml) and streptomycin (100 »g/ml). The cells were incubated at 37°C in humidified atmosphere of 5% CO₂ in air. The cells were harvested by applying a thin layer of 0.25% trypsin solution in EDTA, washed and resuspended in cold N saline solution. Viable cells were identified by trypan blue dye exclusion and counted. The cell suspension was diluted to the desired concentration. Three groups of mice were studied using a control 4-S-CAP and N-Ac-4-S-CAP as the active agents in the treatment. On day zero, the mice were inoculated via the lateral tail vein with 5 x 10⁴ cells in 0.2 ml of N saline. The test drugs were dissolved in normal saline, sterilized by membrane filtration, and administered in a dose of 300 mg/Kg (4-S-CAP) or 900 mg/Kg (N-Ac-4-S-CAP); starting on day five, the control solution or drug was injected i.p. daily for 14 days. On day 26, the mice were killed by cervical dislocation, their lungs were removed, and the number of melanoma colonies was counted under a dissecting microscope. The results were expressed as percentage reduction in the number of colonies: [a - b/a] x 100, where a = colonies in control group and b = colonies in experimental group.

[2] = Acute toxicity / lethal dose and maximum tolerable dose
Description: 3:1-85 1972. In accordance with this Protocol, ten to fifteen mice were used in each test group. They were weighed and randomized at day one after s.c. inoculation of B16 melanoma cells. From day five, the phenolic melanin precursors were administered i.p. daily for nine days. The test compounds were dissolved in normal saline, and sterilized by heating to 100°C for 2 minutes. […] They were administered i.p. with the following doses: 400 mg/Kg - 4-S-CAP; 200 to 300 mg/Kg - 4-S-CAP; and 200 to 1200 mg/Kg - N-Ac-4-S-CAP. A catalytic amount of L-dopa, 25 mg/Kg and antidecarboxylase, carbidopa, 400 mg/Kg, were also administered. Carbidopa was given one hour prior to L-dopa administration. DTIC (NSC 4538) was used as a control drug at a dose of 60 mg/Kg. Acute toxicity of 4-S-CP and 4-S-CAP was evaluated from 100 to 1600 mg/Kg.
The B16 mouse melanoma was maintained by s.c. inoculation of tumour cells into the back of C57BL7J mice (5 to 6 weeks, female). […] Briefly, excised tumours were homogenized in normal saline. The homogenized tumour cells were then passed through a sterile 80 mesh stainless steel screen, washed with normal saline, centrifuged (500 g. for 10 minutes) and resuspended in normal saline. Suspensions of viable melanoma cells at the concentration of 1 x 10⁶ per 0.1 ml were inoculated s.c. into both the right and left inguinal areas of C57BL/6J mice (female, 5 to 6 weeks old, 18 to 20 gm).

CC(=O)NCCSc1ccc(O)cc1 [N-Ac-4-S-CAP, N-ACETYL-4-S-CYSTEAMINYLPHENOL]
No. of Colonies % control [1]: 25% and 24.9% | No. of Colonies per pair of lungs [1]: 21.5 ± 10.8 | lethal dose ([2]; acute toxicity, mice): 1400 mg/kg | per single dose toxicity levels ([2]; experimental tests on animals, single dose): ~1,400 mg/kg of body weight | LD50 ([2]; mouse, in vivo, ip): 1400 mg/kg
